Test results as given in patent US10633375B2, “Oxopicolinamide derivative, preparation method therefor and pharmaceutical use thereof” (Jiangsu Hengrui Medicine Co., Ltd., priority 2016, dated 2020).

These molecules were tested against Coagulation Factor XIa protease (Homo sapiens (Human), UniProt P03951) (assay: Inhibition of Factor XIa detected by absorption photometry). Conditions: absorbance at 405 nm, 10 minutes at 37° C.
Type: biochemical
Procedure: Test Example 1: Biological Activity of the Compounds of the Present Invention on
The Inhibition of Factor XIa Detected by Absorption Photometry
1. Experimental Materials
Enzyme: Coagulation Factor XIa protease (Abcam, Art. No ab62411)
Substrate: Coagulation Factor XIa specific substrate (HYPHEN1310 med, Art. No. Biophen cs-21(66))
2. Experimental Procedure
20 mM of test compound dissolved in 100% DMSO was diluted to 200, 20, 2, 0.2, 0.02, 0.002 μM with 100% DMSO; 1 μl of the compound was added to each well in a 384-well plate, blank and control wells were replaced with DMSO. The plate was centrifuged to remove the compound to the bottom. 10 μl (2.5 μg/ml) of FXIa enzyme solution was added to each well, and 10 μl of buffer was added to the blank well. The plate was centrifuged to remove the enzyme solution to the bottom.
Finally, 10 μl of 2 mM substrate were added to each well, and the plate was centrifuged to remove the substrate solution to the bottom.
The plate was incubated for 10 minutes at 37° C.; and then the absorbance was measured at 405 nm.

Coagulation Factor XIa protease, sequence (P03951 388-625): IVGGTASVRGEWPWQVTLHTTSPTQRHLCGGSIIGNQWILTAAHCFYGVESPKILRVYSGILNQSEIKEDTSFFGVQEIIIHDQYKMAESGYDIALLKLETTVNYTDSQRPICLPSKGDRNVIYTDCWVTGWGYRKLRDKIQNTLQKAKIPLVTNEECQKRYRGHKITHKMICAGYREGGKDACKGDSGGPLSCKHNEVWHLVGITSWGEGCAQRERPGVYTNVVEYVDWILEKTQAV
Coagulation Factor XIa protease, sequence (P03951 19-387 partner): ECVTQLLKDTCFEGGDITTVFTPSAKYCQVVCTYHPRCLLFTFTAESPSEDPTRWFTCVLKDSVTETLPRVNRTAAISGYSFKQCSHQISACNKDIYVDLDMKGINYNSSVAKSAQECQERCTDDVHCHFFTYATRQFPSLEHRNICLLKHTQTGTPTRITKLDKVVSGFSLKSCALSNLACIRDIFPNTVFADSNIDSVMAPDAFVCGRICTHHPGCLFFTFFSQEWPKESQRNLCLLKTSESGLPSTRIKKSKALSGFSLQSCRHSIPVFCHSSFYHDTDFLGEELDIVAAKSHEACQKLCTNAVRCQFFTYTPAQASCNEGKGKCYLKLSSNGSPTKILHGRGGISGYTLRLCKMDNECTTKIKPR

Compound	IC50
COc1cn(C(CC2CC(C)(C)C2)C(=O)Nc2ccc(C(=O)O)cc2)c(=O)cc1-c1cc(Cl)ccc1C(C)=O (stereo not drawn) [Example 173, 4-(2-(4-(2-acetyl-5-chlorophenyl)-5-methoxy-2-oxopyridin-1(2H)-yl)-3-(3,3-dimethylcyclobutyl)propanamido)benzoic acid]	100 nM
CCC(=O)c1ccc(Cl)cc1-c1cc(=O)n([C@H](Cc2ccccc2)C(=O)Nc2ccc(C(N)=O)cc2)cc1OC [Example 25, (R)-4-(2-(4-(5-chloro-2-propionylphenyl)-5-methoxy-2-oxopyridin-1(2H)-yl)-3-phenylpropanamido)benzamide]	1520 nM
COc1cn([C@@H](CC2CCC2)C(=O)Nc2ccc(C(=O)O)cc2)c(=O)cc1-c1c(C(C)=O)ccc(Cl)c1F [Example 161, (S)-4-(2-(4-(6-acetyl-3-chloro-2-fluorophenyl)-5-methoxy-2-oxopyridin-1(2H)-yl)-3-cyclobutylpropanamido)benzoic acid]	13100 nM
COc1cn(C(Cc2ccc(C#N)cc2)C(=O)Nc2ccc(C(=O)O)cc2)c(=O)cc1-c1cc(Cl)ccc1C(C)=O (stereo not drawn) [Example 90, 4-(2-(4-(2-acetyl-5-chlorophenyl)-5-methoxy-2-oxopyridin-1(2H)-yl)-3-(4-cyanophenyl)propanamido)benzoic acid]	100 nM
CCC(=O)c1ccc(Cl)cc1-c1cc(=O)n(C(Cc2ccccc2)C(=O)Nc2ccc3ncncc3c2)cc1OC (stereo not drawn) [Example 23, 2-(4-(5-chloro-2-propionylphenyl)-5-methoxy-2-oxopyridin-1(2H)-yl)-3-phenyl-N-(quinazolin-6-yl)propanamide]	24 nM
COc1ccccc1CC(C(=O)Nc1ccc(C(=O)O)cc1)n1cc(OC)c(-c2cc(Cl)ccc2C(C)=O)cc1=O (stereo not drawn) [Example 78, 4-(2-(4-(2-acetyl-5-chlorophenyl)-5-methoxy-2-oxopyridin-1(2H)-yl)-3-(2-methoxyphenyl)propanamido)benzoic acid]	72 nM
COc1cn(C(CC2(C)CC2)C(=O)Nc2ccc(C(=O)O)cc2)c(=O)cc1-c1cc(Cl)ccc1C(C)=O (stereo not drawn) [Example 158, 4-(2-(4-(2-acetyl-5-chlorophenyl)-5-methoxy-2-oxopyridin-1(2H)-yl)-3-(1-methylcyclopropyl)propanamido)benzoic acid]	46 nM
CCC(=O)c1ccc(Cl)cc1-c1cc(=O)n(C(CCOC(C)(C)C)C(=O)Nc2ccc3nc(C)c(C)nc3c2)cc1OC (stereo not drawn) [Example 124, 4-(tert-butoxy)-2-(4-(5-chloro-2-propionylphenyl)-5-methoxy-2-oxopyridin-(2H)-yl)-N-(2,3-dimethylquinoxalin-6-yl)butanamide]	100 nM
COc1cn(C(Cc2ccccc2)C(=O)Nc2ccc3cn[nH]c3c2)c(=O)cc1-c1cc(Cl)ccc1C(C)=O (stereo not drawn) [Example 42, 2-(4-(2-acetyl-5-chlorophenyl)-5-methoxy-2-oxopyridin-1 (2H)-yl)-N-(1H-indazol-6-yl)-3-phenylpropanamide]	40 nM
COc1cn(C(Cc2ccccc2Cl)C(=O)Nc2ccc(C(=O)O)cc2)c(=O)cc1-c1cc(Cl)ccc1C(C)=O (stereo not drawn) [Example 70, 4-(2-(4-(2-acetyl-5-chlorophenyl)-5-methoxy-2-oxopyridin-1 (2H)-yl)-3-(2-chlorophenyl)propanamido)benzoic acid]	54 nM
COc1cn(C(Cc2ccccc2Br)C(=O)Nc2ccc(C(=O)O)cc2)c(=O)cc1-c1cc(Cl)ccc1C(C)=O (stereo not drawn) [Example 64, 4-(2-(4-(2-acetyl-5-chlorophenyl)-5-methoxy-2-oxopyridin-1 (2H)-yl)-3-(2-bromophenyl)propanamido)benzoic acid]	58 nM
COCCC(C(=O)Nc1ccc(C(=O)O)cc1)n1cc(OC)c(-c2cc(Cl)ccc2C(C)=O)cc1=O (stereo not drawn) [Example 147, 4-(2-(4-(2-acetyl-5-chlorophenyl)-5-methoxy-2-oxopyridin-1(2H)-yl)-4-methoxybutanamido)benzoic acid]	56 nM
COc1cn(C(Cc2ccc(F)cc2F)C(=O)Nc2ccc(C(=O)O)cc2)c(=O)cc1-c1cc(Cl)ccc1C(C)=O (stereo not drawn) [Example 65, 4-(2-(4-(2-acetyl-5-chlorophenyl)-5-methoxy-2-oxopyridin-1(2H)-yl)-3-(2,4-difluorophenyl)propanamido)benzoic acid]	43 nM
COc1cn(C(Cc2cccc(C#N)c2)C(=O)Nc2ccc(C(=O)O)cc2)c(=O)cc1-c1cc(Cl)ccc1C(C)=O (stereo not drawn) [Example 88, 4-(2-(4-(2-acetyl-5-chlorophenyl)-5-methoxy-2-oxopyridin-1(2H)-yl)-3-(3-cyanophenyl)propanamido)benzoic acid]	74 nM
COc1cn(C(Cc2cnn(C)c2)C(=O)Nc2ccc(C(=O)O)cc2)c(=O)cc1-c1cc(Cl)ccc1C(C)=O (stereo not drawn) [Example 103, 4-(2-(4-(2-acetyl-5-chlorophenyl)-5-methoxy-2-oxopyridin-1(2H)-yl)-3-(1-methyl-1H-pyrazol-4-yl)propanamido)benzoic acid]	70 nM
COc1cn(C(Cc2ccncc2)C(=O)Nc2ccc(C(=O)O)cc2)c(=O)cc1-c1cc(Cl)ccc1C(C)=O (stereo not drawn) [Example 86, 4-(2-(4-(2-acetyl-5-chlorophenyl)-5-methoxy-2-oxopyridin-1(2H)-yl)-3-(pyridin-4-yl)propanamido)benzoic acid]	99 nM
COc1cn(C(CC2CCCCO2)C(=O)Nc2ccc(C(=O)O)cc2)c(=O)cc1-c1cc(Cl)ccc1C(C)=O (stereo not drawn) [Example 176]	71 nM
CCC(=O)c1ccc(Cl)cc1-c1cc(=O)n(C(Cc2ccccc2)C(=O)Nc2ccc(C(N)=O)cc2)cc1OC (stereo not drawn) [Example 24, 4-(2-(4-(5-chloro-2-propionylphenyl)-5-methoxy-2-oxopyridin-1(2H)-yl)-3-phenylpropanamido)benzamide]	36 nM
CCC(=O)c1ccc(Cl)cc1-c1cc(=O)n(C(CCOC(C)(C)C)C(=O)Nc2ccc3ncncc3c2)cc1OC (stereo not drawn) [Example 121, 4-(tert-butoxy)-2-(4-(5-chloro-2-propionylphenyl)-5-methoxy-2-oxopyridin-1(2H)-yl)-N-(quinazolin-6-yl)butanamide]	67 nM
COC(=O)Nc1ccc(NC(=O)[C@H](Cc2ccccc2)n2cc(OC)c(-c3cc(Cl)ccc3C(C)=O)cc2=O)cc1 [Example 12, methyl (S)-(4-(2-(4-(2-acetyl-5-chlorophenyl)-5-methoxy-2-oxopyridin-1(2H)-yl)-3-phenylpropanamido)phenyl)carbamate]	42 nM
COc1cn(C(Cc2ccccc2)C(=O)Nc2ccc3nn(C)cc3c2)c(=O)cc1-c1cc(Cl)ccc1C(C)=O (stereo not drawn) [Example 18, 2-(4-(2-acetyl-5-chlorophenyl)-5-methoxy-2-oxopyridin-1(2H)-yl)-N-(2-methyl-2H-indazol-5-yl)-3-phenylpropanamide]	56 nM
COc1cn([C@H](Cc2ccn(C3CC3)n2)C(=O)Nc2ccc(C(=O)O)cc2)c(=O)cc1-c1cc(Cl)ccc1C(C)=O [Example 95, (R)-4-(2-(4-(2-acetyl-5-chlorophenyl)-5-methoxy-2-oxopyridin-(2H)-yl)-3-(1-cyclopropyl-1H-pyrazol-3-yl)propanamido)benzoic acid]	7510 nM
CCC(=O)c1ccc(Cl)cc1-c1cc(=O)n(C(Cc2ccccc2)C(=O)Nc2ccc3[nH]cnc3c2)cc1OC (stereo not drawn) [Example 38, N-(1H-benzo[d]imidazol-5-yl)-2-(4-(5-chloro-2-propionylphenyl)-5-methoxy-2-oxopyridin-1(2H)-yl)-3-phenylpropanamide]	30 nM
COc1cn(C(Cc2ccccc2C#N)C(=O)Nc2ccc(C(=O)O)cc2)c(=O)cc1-c1cc(Cl)ccc1C(C)=O (stereo not drawn) [Example 87, 4-(2-(4-(2-acetyl-5-chlorophenyl)-5-methoxy-2-oxopyridin-1(2H)-yl)-3-(2-cyanophenyl)propanamido)benzoic acid]	73 nM
COc1cn(C(Cc2cccnc2)C(=O)Nc2ccc(C(=O)O)cc2)c(=O)cc1-c1cc(Cl)ccc1C(C)=O (stereo not drawn) [Example 82, 4-(2-(4-(2-acetyl-5-chlorophenyl)-5-methoxy-2-oxopyridin-1(2H)-yl)-3-(pyridin-3-yl)propanamido)benzoic acid]	68 nM
CCCCC(C(=O)Nc1ccc(C(=O)O)cc1)n1cc(OC)c(-c2cc(Cl)ccc2C(C)=O)cc1=O (stereo not drawn) [Example 155, 4-(2-(4-(2-acetyl-5-chlorophenyl)-5-methoxy-2-oxopyridin-1(2H)-yl)hexanamido)benzoic acid]	81 nM
COc1cn(C(Cc2ccccc2)C(=O)Nc2ccc(C(=O)O)cc2)c(=O)cc1-c1cc(Cl)ccc1C(=O)C1CC1 (stereo not drawn) [Example 41, 4-(2-(4-(5-chloro-2-(cyclopropanecarbonyl)phenyl)-5-methoxy-2-oxopyridin-1(2H)-yl)-3-phenylpropanamido)benzoic acid]	39 nM
COc1cn([C@@H](Cc2ccccc2)C(=O)Nc2ccc(C(=O)NC3CC3)cc2)c(=O)cc1-c1cc(Cl)ccc1C(C)=O [Example 43, (S)-4-(2-(4-(2-acetyl-5-chlorophenyl)-5-methoxy-2-oxopyridin-1 (2H)-yl)-3-phenylpropanamido)-N-cyclopropylbenzamide]	47 nM
COc1cn([C@H](Cc2ccccc2)C(=O)Nc2ccc3nn(C)cc3c2)c(=O)cc1-c1cc(Cl)ccc1C(C)=O [Example 19, (R)-2-(4-(2-acetyl-5-chlorophenyl)-5-methoxy-2-oxopyridin-1(2H)-yl)-N-(2-methyl-2H-indazol-5-yl)-3-phenylpropanamide]	5690 nM
COc1cn(C(Cc2ccsc2)C(=O)Nc2ccc(C(=O)O)cc2)c(=O)cc1-c1cc(Cl)ccc1C(C)=O (stereo not drawn) [Example 7, 4-(2-(4-(2-acetyl-5-chlorophenyl)-5-methoxy-2-oxopyridin-1 (2H)-yl)-3-(thiophen-3-yl)propanamido)benzoic acid]	34 nM
